Laboratory results published in US20170121295A1, “POLYCYCLIC LPA1 ANTAGONIST AND USES THEREOF” (AMIRA PHARMACEUTICALS, INC., priority 2010, published 2017).

Experiment: Metabolites generated in vivo (rat bile and urine, rat and dog plasma)
Protocol: Compound 2 (2 mg/kg) was administered intravenously (IV) to fasted rats as a solution in 0.9% saline via a bolus injection into the jugular vein (2 mg/mL; […]).
Rats with surgically placed bile duct and jugular vein cannula were purchased from Charles River Laboratories and allowed to acclimate for 2 days. Compound 2 was intravenously dosed (2 mg/kg) to three rats as a solution in 0.9% saline (2 mg/mL; 1 mL/kg). Bile samples were collected at time-points 0-2, 2-5 and 5-8, and urine samples were collected at time-points 0-4 and 4-8 hrs post-dose in 8 mL scintillation vials and stored at −40° C. until analysis.
Concentrations of Compound 1 in rat plasma were determined by LC-MS/MS after protein precipitation. Rat plasma (100 μL) was treated with 400 μL of internal standard solution (ISTD, buspirone in acetonitrile containing 1.5% acetic acid) to precipitate proteins. Samples were vortexed and then centrifuged for 10 min at approximately 4,000 rpm (3700×g) at 4° C. (Beckman centrifuge, Brea, Calif.).
Parent/metabolite analysis was conducted in the positive ion mode (ESI) by multiple reaction monitoring of parent. The mobile phases contained 10 mM ammonium acetate in water with 0.05% formic acid (solvent A) and 10 mM ammonium acetate in 50% acetonitrile/50% methanol with 0.05% formic acid (solvent B). For Compound 1, the flow rate was maintained at 1 mL/min and the total run time was 2.5 min. Analytes were separated on a YMC ODS-AQ column (2.1×150 mm; 3 μm) and eluted with a linear gradient as follows: • 1. mobile phase was held for 0.5 min at 5% B, • 2. B was increased from 5% to 95% over the next 0.2 min, • 3. B was held constant for 1.3 min at 95%, and • 4. B was returned to the initial gradient conditions.
For metabolite quantitation, the flow rate was maintained at 0.25 mL/min and the total run time was 60 min. Analytes were separated using a linear gradient as follows: • 1. mobile phase was held for 5 min at 5% B, • 2. B was increased from 5% to 95% over the next 45 min. • 3. B was held constant for 5 min at 95%, and • 4. B was returned to the initial gradient conditions

- GSH adduct in rat bile (in vivo): neither GSH adduct is observed
SMILES: Cc1noc(-c2ccc(-c3ccc(C4(C(=O)O)CC4)cc3)cc2)c1NC(=O)O[C@H](C)c1ccccc1 [Compound 1, 1-{4′-[3-methyl-4-((R)-1-phenyl-ethoxycarbonylamino)-isoxazol-5-yl]-biphenyl-4-yl}-cyclopropanecarboxylic acid]
- primary amine (decarboxylation) and its secondary metabolites (plasma (rat & dog), rat bile or urine): Neither the primary amine (i.e. decarboxylation) nor its secondary metabolites (glycosylation or glucuronidation) are observed
